The source of these data is US9447086B2, “6-amino acid heteroaryldihydropyrimidines for the treatment and prophylaxis of hepatitis B virus infection” (priority 2012, dated 2016).

Data set [1] can be described thus: Metabolic stability study in human microsome. Format: in vitro ADME. Put shortly: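 Depletion of 1 μM compound followed by LC-MS/MS over 0–30 min (0, 3, 6, 9, 15, 30 min) after methanol quench. Incubations at 37 °C, pH 7.4 phosphate buffer, 0.5 mg/mL microsomal protein, with NADPH (1 mM) or a regenerating system as cofactor; controls lacked cofactor.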
The subject of data set [2] is HBV. The data set is described as follows: Anti-HBV activity in vitro in HepG2.2.15 cells (extracellular HBV DNA by qPCR). It counts as cell-based, Hepatitis B virus. The following applies: Hepatitis B virus; HepG2.2.15 cells; in-house data; read-out: EC50. An outline of the steps:
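Supernatant HBV DNA was measured by qPCR after viral DNA extraction. Samples came from 5-day cultures of HepG2.2.15 cells, an HBV-genome-transfected HepG2 line, exposed to half-log compound dilutions in medium containing 0.5% DMSO.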
On the technique in general: In qPCR the cycle at which signal appears reflects the starting amount.

Data set [3] can be described thus: Cytotoxicity (CC50) in HepDE19 cells, CCK-8 cell viability. Format: cell-based. The following applies: human, HepDE19 cells; read-out: CC50. From the text:
HepG2.2.15 and HepDE19 are stably-transfected cell lines containing the HBV genome. Both cell lines are derived from the hepatoblastoma cell line Hep G2 (American Type Culture Collection, ATCC® HB-8065™) by the published procedures described in references: MA Selles et al. Proc. Natl. Acad. Sci. USA 1987, 84, 1005-1009 and H Guo et al. Journal of Virology 2007, 81, 12472-12484, respectively. Both cell lines were maintained in Dulbecco's modified Eagle's medium (DMEM)-F12 medium supplemented with 10% fetal bovine serum, 100 U/mL penicillin, 100 μg/mL streptomycin, and 0.5 mg/mL of G418.
Five days after treatment, cell viability was measured by addition of 20 μL of CCK-8 reagent. Two hours after incubation at 37° C., the absorbance at wavelengths of 450 nm and 630 nm (OD450 and OD630) was recorded by a plate reader.

For data set [4], the system named is HBV. Nature of the data set: Selectivity index (CC50 value/EC50 value). Format: cell-based, Hepatitis B virus. From the text:
Based on FDA guidance, in order to support clinical testing in humans, the assessment of acceptable risk-benefit has to be achieved by providing clear evidence of in vitro antiviral activity (EC50) and cytotoxicity (CC50). It is important to establish that an investigational product has antiviral activity at concentrations that can be achieved in vivo without inducing toxic effects to cells. Furthermore, in a cell culture model, apparent antiviral activity of an investigational product can be the result of host cell death after exposure to the product. The relative effectiveness of the compound in inhibiting viral replication compared to inducing cell death is defined as the selectivity index (CC50 value/EC50 value). It is desirable to have a high selectivity index giving maximum antiviral activity with minimal cell toxicity.
The relative effectiveness of the compound in inhibiting viral replication compared to inducing cell death is defined as the selectivity index (CC50 value/EC50 value). It is desirable to have a high selectivity index giving maximum antiviral activity with minimal cell toxicity.

Data set [5] can be described thus: Lyophilisation solubility assay (Lysa). It counts as physicochemical. The following applies: phosphate buffer, pH 6.5, aqueous buffer, thermodynamic from solid. Put shortly:
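Solubility in μg/mL is read by UV or HPLC-UV on filtrate, neat and diluted 1/10. Before filtration, the residue from evaporated 10 mM DMSO stock was taken up in pH 6.5 0.05 M phosphate buffer, then stirred 1 h, shaken 2 h and stood overnight, in duplicate.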

As usually defined, the EC50 is the concentration that produces a half-maximal response. Broadly, the CC50 is the concentration that lowers cell viability or growth by half. What is called thermodynamic solubility is the concentration in solution at equilibrium with solid. For `COC(=O)C1=C(CN2CCOC[C@H]2C(=O)O)NC(c2nccs2)=N[C@H]1c1ccc(Br)cc1F` [Example 94, (S)-4-[(R)-6-(4-Bromo-2-fluoro-phenyl)-5-methoxycarbonyl-2-thiazol-2-yl-3,6-dihydro-pyrimidin-4-ylmethyl]-morpholine-3-carboxylic acid], the “Human Hepatic Clearance” value in data set [1] is recorded as 0.61 mL/min/kg. Besides, the EC50 in data set [2] stood at 20 nM. Moreover, the half-maximal cytotoxic concentration (CC50) at 5 days in data set [3] amounted to 92000 nM. The “Selectivity index (CC50/EC50)” value in data set [4] is given as 4600. For the same molecule, the solubility (thermodynamic) in data set [5] was above 677 µg/mL.
In the same order, the values of `CCOC(=O)C1=C(CN2CCOC[C@H]2C(=O)O)NC(c2nccs2)=N[C@H]1c1ccc(Br)cc1` [Example 123, (3S)-4-[[(4S)-4-(4-Bromophenyl)-5-ethoxycarbonyl-2-(1,3-thiazol-2-yl)-1,4-dihydropyrimidin-6-yl]methyl]morpholine-3-carboxylic acid] are 3.14 mL/min/kg, 2.8 nM, 56000 nM, 19900 and above 666 µg/mL.
`COC(=O)C1=C(CN2CC(F)(F)C[C@H]2C(=O)O)NC(c2nccs2)=N[C@H]1c1ccc(F)c(F)c1Cl` [Example 74, (R)-6-((S)-2-Carboxy-4,4-difluoro-pyrrolidin-1-ylmethyl)-4-(2-chloro-3,4-difluoro-phenyl)-2-thiazol-2-yl-1,4-dihydro-pyrimidine-5-carboxylic acid methyl ester]: the “Human Hepatic Clearance” value in data set [1] turned out to be 0.51 mL/min/kg. Moreover, in data set [2], the concentration giving a half-maximal response (EC50) was 2.1 nM. For the same molecule, the CC50 at 5 days in data set [3] is 72000 nM. The “Selectivity index (CC50/EC50)” value in data set [4] amounted to 34286. The molecule further yielded a thermodynamic solubility in data set [5] above 655 µg/mL.
As to `CCOC(=O)C1=C(CN2CCOC[C@H]2C(=O)O)NC(c2nccs2)=N[C@H]1c1ccc(F)c(F)c1F` [Example 44, (S)-4-[(R)-5-Ethoxycarbonyl-2-thiazol-2-yl-6-(2,3,4-trifluoro-phenyl)-3,6-dihydro-pyrimidin-4-ylmethyl]-morpholine-3-carboxylic acid], the “Human Hepatic Clearance” value in data set [1] is 4.46 mL/min/kg. Besides, in data set [2], the EC50 amounted to 4.6 nM. The CC50 at 5 days in data set [3] turned out to be 49000 nM. Besides, the “Selectivity index (CC50/EC50)” value in data set [4] is recorded as 10748. The thermodynamic solubility in data set [5] was above 626 µg/mL.
As to `COC(=O)C1=C(CN2CCOC[C@H]2C(=O)O)NC(c2ncoc2C)=N[C@H]1c1cccc(F)c1Cl` [Example 103, (S)-4-[(R)-6-(2-Chloro-3-fluoro-phenyl)-5-methoxycarbonyl-2-(5-methyl-oxazol-4-yl)-3,6-dihydro-pyrimidin-4-ylmethyl]-morpholine-3-carboxylic acid], the “Human Hepatic Clearance” value in data set [1] stood at 2.81 mL/min/kg. Also, the EC50 in data set [2] was 15 nM. Further, in data set [3], the CC50 at 5 days is above 100000 nM. The “Selectivity index (CC50/EC50)” value in data set [4] is on record as above 6803. In addition, in data set [5], the solubility (thermodynamic) is above 643 µg/mL.
The like results for `CCOC(=O)C1=C(CN2CCOC[C@H]2C(=O)O)NC(c2nccn2C)=N[C@H]1c1cccc(F)c1Cl` [Example 97, (S)-4-[(R)-6-(2-Chloro-3-fluoro-phenyl)-5-ethoxycarbonyl-2-(1-methyl-1H-imidazol-2-yl)-3,6-dihydro-pyrimidin-4-ylmethyl]-morpholine-3-carboxylic acid] were, in that order, 1.63 mL/min/kg, 5 nM, 44000 nM, 8800 and above 640 µg/mL.
In the same order, the values of `[2H][C@@]1(c2ccc(F)cc2Cl)N=C(c2nccs2)NC(CN2CC(F)(F)C[C@H]2C(=O)O)=C1C(=O)OC` [Example 3, (S)-6-((S)-2-Carboxy-4,4-difluoro-pyrrolidin-1-ylmethyl)-4-(2-chloro-4-fluoro-phenyl)-[4-^2H]-2-thiazol-2-yl-1,4-dihydro-pyrimidine-5-carboxylic acid methyl ester] are 9.21 mL/min/kg, 1.1 nM, 97000 nM, 88182 and above 644 µg/mL.
Take `CCOC(=O)C1=C(CN2CCO[C@H](C)[C@H]2C(=O)O)NC(c2nccs2)=N[C@H]1c1ccccc1Cl` [Example 117, (2R,3S)-4-[(R)-6-(2-Chloro-phenyl)-5-ethoxycarbonyl-2-thiazol-2-yl-3,6-dihydro-pyrimidin-4-ylmethyl]-2-methyl-morpholine-3-carboxylic acid]: in data set [1], the “Human Hepatic Clearance” value is reported as 0 mL/min/kg. Besides, the EC50 in data set [2] stood at 1.5 nM. The CC50 at 5 days in data set [3] is above 100000 nM. In addition, in data set [4], the “Selectivity index (CC50/EC50)” value stood at 66667. The molecule also came in with a thermodynamic solubility in data set [5] above 628 µg/mL.
The like results for `CCOC(=O)C1=C(CN2CCOC[C@H]2C(=O)O)NC(c2nccn2C)=N[C@H]1c1ccc(F)c(F)c1` [Example 57, (S)-4-[(S)-6-(3,4-Difluoro-phenyl)-5-ethoxycarbonyl-2-(1-methyl-1H-imidazol-2-yl)-3,6-dihydro-pyrimidin-4-ylmethyl]-morpholine-3-carboxylic acid] were, in that order, 0 mL/min/kg, 15 nM, 35000 nM, 2384 and above 613 µg/mL.
In the same order, the values of `CCOC(=O)C1=C(CN2CCOC[C@H]2C(=O)O)NC(c2nccn2C)=N[C@H]1c1ccc(F)cc1Cl` [Example 35, (S)-4-[(R)-6-(2-Chloro-4-fluoro-phenyl)-5-ethoxycarbonyl-2-(1-methyl-1H-imidazol-2-yl)-3,6-dihydro-pyrimidin-4-ylmethyl]-morpholine-3-carboxylic acid] are 8.86 mL/min/kg, 7.7 nM, above 100000 nM, 12987 and above 599 µg/mL.
With `CCOC(=O)C1=C(CN2CCO[C@H](C)[C@H]2C(=O)O)NC(c2nccs2)=N[C@H]1c1cccc(F)c1Cl` [Example 118, (2R,3S)-4-[(R)-6-(2-Chloro-3-fluoro-phenyl)-5-ethoxycarbonyl-2-thiazol-2-yl-3,6-dihydro-pyrimidin-4-ylmethyl]-2-methyl-morpholine-3-carboxylic acid], the “Human Hepatic Clearance” value in data set [1] turned out to be 0.1 mL/min/kg. For the same molecule, the EC50 in data set [2] came to 0.5 nM. Further, the CC50 at 5 days in data set [3] was above 100000 nM. Further, the “Selectivity index (CC50/EC50)” value in data set [4] is above 200000. This molecule also gave a solubility (thermodynamic) in data set [5] above 630 µg/mL.
As for `COC(=O)C1=C(CN2CCOC[C@H]2C(=O)O)NC(c2nc(C3CC3)cs2)=N[C@H]1c1ccc(F)cc1Cl` [Example 87, (3S)-4-[[(4R)-4-(2-Chloro-4-fluoro-phenyl)-2-(4-cyclopropylthiazol-2-yl)-5-methoxycarbonyl-1,4-dihydropyrimidin-6-yl]methyl]morpholine-3-carboxylic acid], the “Human Hepatic Clearance” value in data set [1] was determined as 6.86 mL/min/kg. For the same molecule, the EC50 in data set [2] was determined as 22 nM. For the same molecule, the CC50 at 5 days in data set [3] was 100000 nM. Also, the “Selectivity index (CC50/EC50)” value in data set [4] is given as above 4545. In data set [5], the thermodynamic solubility was above 600 µg/mL.
